Molecules are shown by their SMILES. Converted amounts (≈) assume the structure as drawn. Bounds are passed on as bounds.

Test [1] is described as follows: Inhibition of MurC (unknown origin) at 100 uM relative to control.
A short description of test [2]: Inhibition of MurD (unknown origin) at 100 uM relative to control.
Test [3] is described as follows: Inhibition of MurE (unknown origin) at 100 uM relative to control.
Test [4] can be described thus: Inhibition of MurF (Unknown origin) at 100 uM relative to control.
A further test has as its system Staphylococcus aureus. Kind of test: Antibacterial activity against Staphylococcus aureus ATCC 29213 assessed as inhibition of bacterial growth. The class given is functional.
Another test relates to Escherichia coli. Kind of test: Antibacterial activity against Escherichia coli ATCC 25922 assessed as inhibition of bacterial growth. In kind it is functional.
Test [5] in a line: Inhibition of MurE (unknown origin).
Test [6] in a line: Inhibition of MurF (unknown origin).
Test [7] is described as follows: Inhibition of MurD (unknown origin).
Test [8] in a line: Inhibition of MurC (unknown origin).

As to `Cc1cc(-c2cccc(C(=O)O)c2)cc(C)c1/C=C/c1cncc(-c2nnn[nH]2)c1`, the inhibition in [1] worked out at 33%; in test [2], 26%; in [3], 39%; in test [4] it was 18%. Besides, the MIC in the test with Staphylococcus aureus and in the test on Escherichia coli was above 250 µM in each case.

Take `Cc1cc(-c2ccco2)cc(C)c1/C=C/c1cncc(C(N)=O)c1`: the IC50 in test [5] came to 156 µM; in [6], 31 µM; in [7], 168 µM. Moreover, the inhibition in [1] was 20%; in [2], 40%; in test [3] it was 51%; in [4], 76%. Moreover, the MIC with Staphylococcus aureus and in the test on Escherichia coli was above 250 µM in each case.

Consider `Cc1cc(-c2ccco2)cc(C)c1/C=C/c1cncc(C(=O)O)c1`, for which the IC50 in [6] is 109 µM; in test [7], 64 µM; in test [8], 153 µM. The inhibition turned out to be 43% in [1], 70% in test [2], 27% in test [3] and 47% in [4]. The MIC in the test on Staphylococcus aureus and in the test with Escherichia coli was above 250 µM throughout.

As for `Cc1cc(-c2ccco2)cc(C)c1/C=C/c1cncc(-c2nn[nH]n2)c1`, the IC50 is 79 µM in test [5], 59 µM in [6] and 104 µM in [7]. In addition, the inhibition in test [1] was found to be 30%; in test [2] it was 55%; in [3], 51%; in test [4], 74%. The MIC in the test on Staphylococcus aureus and with Escherichia coli was above 250 µM throughout.

In the case of `Cc1cc(-c2ccoc2)cc(C)c1/C=C/c1cncc(-c2nnn[nH]2)c1`, the inhibition came out at 16% in [1], 22% in [2], 18% in [3] and 12% in test [4]. In addition, the MIC in the test on Staphylococcus aureus and in the test with Escherichia coli was above 250 µM throughout.

As to `Cc1cc(-c2ccco2)cc(C)c1/C=C/c1cccc(-c2nnn[nH]2)c1`, it took 107 µM to reach half-maximal inhibition in test [7] (IC50). The inhibition in test [1] was 5%; in [2], 64%; in test [3] it was 30%; in test [4], 21%. In addition, the MIC in the test with Staphylococcus aureus and with Escherichia coli was above 250 µM in each case.

As to `COC(=O)c1cccc(-c2cc(C)c(/C=C/c3cncc(-c4nnn[nH]4)c3)c(C)c2)c1`, the inhibition is 15% in test [1], 16% in test [2], 23% in [3] and 16% in test [4]. Also, the minimum inhibitory concentration (MIC) in the test on Staphylococcus aureus and in the test with Escherichia coli was above 250 µM each time.

Regarding `Cc1cc(N2CCCC2)cc(C)c1/C=C/c1cncc(-c2nnn[nH]2)c1`, the inhibition in test [1] is 22%; in [2], 1%; in test [3], 16%; in test [4], 29%. The minimum inhibitory concentration (MIC) in the test on Staphylococcus aureus is 250 µM (≈ 86.6 µg/mL); in the test with Escherichia coli, above 250 µM.

Take `Cc1cc(-c2cccc(CO)c2)cc(C)c1/C=C/c1cncc(-c2nnn[nH]2)c1`: the inhibition in [1] worked out at 25%; in [2] it was 14%; in [3] it was 23%; in test [4], 24%. Also, the minimal inhibitory concentration (MIC) with Staphylococcus aureus and in the test on Escherichia coli was above 250 µM each time.

Regarding `Cc1cc(-c2ccco2)cc(C)c1/C=C/c1cncc(C2=NCCN2)c1`, the figures for the half-inhibitory concentration (IC50) in test [6], in test [7] and in test [8] were 201 µM, 160 µM and 151 µM, respectively. Also, the inhibition was determined as 42% in test [1], 47% in test [2], 10% in test [3] and 40% in test [4]. Further, the MIC in the test on Staphylococcus aureus was determined as 31 µM (≈ 10.6 µg/mL); with Escherichia coli, 250 µM (≈ 85.9 µg/mL).

In the case of `COc1cccc(-c2cc(C)c(/C=C/c3cncc(-c4nnn[nH]4)c3)c(C)c2)c1`, the inhibition in [1] is 15%; in [2], 23%; in test [3], 21%; in test [4], 18%. Further, the MIC in the test with Staphylococcus aureus and in the test on Escherichia coli was above 250 µM in each case.

Take `Cc1cc(-c2ccco2)cc(C)c1/C=C/c1cncc(C#N)c1`: the inhibition came out at 22% in test [1], 27% in [2], 35% in test [3] and 21% in test [4]. For the same molecule, the minimum inhibitory concentration (MIC) in the test on Staphylococcus aureus and in the test on Escherichia coli was above 250 µM each time.

In the case of `COc1ccc(-c2cc(C)c(/C=C/c3cncc(-c4nnn[nH]4)c3)c(C)c2)cc1`, the inhibition stood at 30% in [1], 30% in test [2], 37% in [3] and 25% in test [4]. Also, the MIC in the test with Staphylococcus aureus is 250 µM (≈ 95.9 µg/mL); with Escherichia coli, above 250 µM.

For `Cc1cc(-c2ccco2)cc(C)c1/C=C/c1cncc(C2=NCCO2)c1`, the IC50 worked out at 144 µM in test [6], 126 µM in [7] and 153 µM in test [8]. In addition, the inhibition is 44% in test [1], 45% in [2], 32% in [3] and 44% in test [4]. The MIC in the test with Staphylococcus aureus is 125 µM (≈ 43.1 µg/mL); with Escherichia coli, above 250 µM.

Regarding `COc1ccccc1-c1cc(C)c(/C=C/c2cncc(-c3nnn[nH]3)c2)c(C)c1`, the IC50 in test [7] was determined as 104 µM. Besides, the inhibition is 35% in [1], 42% in test [2], 33% in test [3] and 0% in [4]. In addition, the minimum inhibitory concentration (MIC) is 125 µM (≈ 47.9 µg/mL) with Staphylococcus aureus and above 250 µM in the test with Escherichia coli.

In [7], `Cc1cc(Br)cc(C)c1/C=C/c1cncc(-c2nnn[nH]2)c1` returned an IC50 of 131 µM. Further, the inhibition was 30% in test [1], 46% in [2], 38% in [3] and 32% in test [4]. For the same molecule, the MIC with Staphylococcus aureus was 250 µM (≈ 89.1 µg/mL); with Escherichia coli, above 250 µM.

For the molecule `Cc1cc(-c2ccco2)cc(C)c1/C=C/c1cncc(C2=NCCS2)c1`, the IC50 in test [5] came to 150 µM; in test [6] it was 71 µM; in test [7], 85 µM; in test [8] it was 82 µM. Further, the inhibition in test [1] worked out at 56%; in test [2], 70%; in test [3], 46%; in test [4], 58%. For the same molecule, the MIC in the test with Staphylococcus aureus and with Escherichia coli was above 250 µM throughout.

As to `Cc1cc(-c2ccco2)cc(C)c1/C=C/c1cc(-c2nnn[nH]2)ccn1`, the IC50 in test [5] amounted to 97 µM; in test [6], 17 µM; in test [7] it was 56 µM. Moreover, the inhibition was 23% in [1], 73% in test [2], 55% in test [3] and 84% in [4]. Moreover, the MIC in the test with Staphylococcus aureus and in the test on Escherichia coli was above 250 µM each time.

As for `Cc1cc(N2CCCCC2=O)cc(C)c1/C=C/c1cncc(-c2nnn[nH]2)c1`, the inhibition in test [1] was determined as 15%; in [2], 14%; in [3] it was 30%; in test [4], 38%. Also, the MIC in the test with Staphylococcus aureus and with Escherichia coli was above 250 µM each time.

For `Cc1cc(-c2cccnc2)cc(C)c1/C=C/c1cncc(-c2nn[nH]n2)c1`, the inhibition in test [1] worked out at 10%; in test [2], 10%; in test [3], 4%; in test [4], 0%. In addition, the MIC in the test on Staphylococcus aureus and in the test on Escherichia coli was above 250 µM each time.

For `Cc1cc(-c2ccncc2)cc(C)c1/C=C/c1cncc(-c2nnn[nH]2)c1`, the inhibition in [1] is 14%; in test [2], 9%; in [3], 19%; in [4] it was 15%. Besides, the MIC in the test on Staphylococcus aureus and with Escherichia coli was above 250 µM throughout.

One may read the inhibition as the relative decrease from the control value, in per cent. Read a high inhibition as a strong effect. As usually defined, the MIC is the smallest concentration in the dilution series that meets the test's criterion for growth inhibition. In general, IC50 refers to the point on the concentration scale where inhibition reaches its midpoint. Low readings indicate higher potency, high ones lower potency.

The record behind these values is ChEMBL document CHEMBL4813999, “Mur ligases inhibitors with azastilbene scaffold: Expanding the structure-activity relationship” (Bioorg Med Chem Lett, 2021).
